Consider one substance from patent US20240325548A1, “DYNAMIC BIOACTIVE SCAFFOLDS AND THERAPEUTIC USES THEREOF AFTER CNS INJURY” (Northwestern University, priority 2021, published 2024).

For series [1], the system named is murine model of severe spinal cord injury (SCI). Kind of series: Hindlimb locomotor evaluation after SCI (BMS, footprint analysis). It is filed as in vivo, mouse. The following applies: three weeks post-injury. The procedure:
All experiments were conducted at the Simpson Querrey Institute at Northwestern University. 182 CD1 mice (Charles River) were subjects of this study (N=38 Sham, N=38 IKVAV PA2 alone, N=38 IKVAV PA2+FGF2 PA1, N=38 IKVAV PA2+FGF2 PA2, N=12 IKVAV PA1, N=12 Backbone PA, N=6 IKVAV PA4). The age of animals used in the study was in the range of 10-16 weeks. 8 independent in vivo experiments were carried out (injury+PA injection) and each of the 8 experiments had animals of the exact same age which were injected with at least the 4 main treatment groups: Sham, IKVAV PA2 alone, IKVAV PA2+FGF2 PA1, and IKVAV PA2+FGF2 PA2. Animals were anesthetized using 2.5% isoflurane gas with oxygen. […]
Mice that passed this inclusion criterion were randomized into experimental groups for PA injection and were thereafter evaluated blind to their experimental condition.
PAs (dissolved in sterile NaCl 0.9% solution at 1 wt %) were injected 24 h after SCI using a glass capillary micropipette (Sutter Instruments, Novato, CA) (outer diameter, 100 m) coated with Sigmacote (Sigma-Aldrich) to reduce surface tension as described elsewhere (19). […] The micropipette was lowered to a depth of 750 m measured from the dorsal surface of the cord, and 4-6 μL of the diluted amphiphile solution was injected at 1 L/min. […]
The motor function was evaluated with the locomotor open-field rating scale on the Basso Mouse Scale (BMS). […]

Series [2] in a line: Negative-stain TEM fiber width. The format is physicochemical. The procedure: To prepare the negatively stained TEM specimen, 7 μL of PA sample solution (1 wt % PA prepared in 150 mM NaCl and 3 mM diluted 10 times in MilliQ water) was applied on the shiny side of a glow discharged grid (300 mesh copper with carbon film, Electron Microscopy Sciences), followed by rinsing three times with MilliQ water to remove the excess of salt. The grid was then stained with filtered 2 wt % uranyl acetate aqueous solution and dried in air. TEM imaging was carried out on a JEOL 1230 microscope with a LaB6 filament at 100 kV accelerating voltage, equipped with a Gatan 831 CCD camera. A cold finger was introduced for sample stabilization during imaging.

In the case of C16-A2G2E4GIKVAV [IKVAV PA2], the “BMS open field locomotor score” value in series [1] is 4.3±0.5. In addition, the average fiber width in series [2] worked out at 10.6±0.1 nm.
